Experiments:
[1] = target: T1, Glutamate receptor ionotropic, AMPA (Rattus norvegicus, UniProt P19490+P19491+P19492+P19493); experiment: Compound was tested for the inhibition of [3H]AMPA radioligand binding to Ionotropic glutamate receptor AMPA in synaptic plasma membrane prepared from rat forebrain; very weak inhibition; assay type: cell membranes, Brain/Plasma
[2] = organism: Rattus norvegicus; experiment: Compound was tested for the inhibition of [3H]D-aspartate radioligand uptake into Synaptosomes in synaptic plasma membrane prepared from rat forebrain; assay type: functional
[3] = target: Glutamate NMDA receptor; experiment: Compound was tested for the inhibition of [3H]L-Glutamate radioligand binding to NMDA receptor in synaptic plasma membrane prepared from rat forebrain; very weak inhibition; assay type: cell membranes, Brain/Plasma
[4] = target: Glutamate receptor ionotropic, kainate; experiment: Compound was tested for the inhibition of [3H]kainate radioligand binding to Ionotropic glutamate receptor kainate in synaptic plasma membrane prepared from rat forebrain; assay type: cell membranes, Brain/Plasma
[5] = target: T1, Glutamate receptor ionotropic, AMPA; experiment: Compound was tested for the inhibition of [3H]AMPA radioligand binding to Ionotropic glutamate receptor AMPA in synaptic plasma membrane prepared from rat forebrain; assay type: cell membranes, Brain/Plasma
[6] = target: Glutamate NMDA receptor; experiment: Compound was tested for the inhibition of [3H]L-Glutamate radioligand binding to NMDA receptor in synaptic plasma membrane prepared from rat forebrain; assay type: cell membranes, Brain/Plasma
[7] = organism: Rattus norvegicus; experiment: Compound was tested for the inhibition of [3H]D-aspartate radioligand uptake into Synaptosomes in synaptic plasma membrane prepared from rat forebrain; very weak inhibition; assay type: functional, Brain/Plasma

| SMILES | Ki [1] [µM] | Ki [2] [µM] | Ki [3] [µM] | Ki [4] [µM] | Ki [5] [µM] | Ki [6] [µM] | Ki [7] [µM] |
| --- | --- | --- | --- | --- | --- | --- | --- |
| CC(C)[C@H]1CN[C@H](C(=O)O)[C@H]1CC(=O)O [DIHYDROKAINATE] | > 500 | 30 | > 300 | 16 | – | – | – |
| O=C(O)C[C@H]1CCN[C@@H]1C(=O)O [TRANS-CPPA] | – | – | – | 1.6 | 106 | 0.5 | > 250 |
